Assay results: paper PMC4624142, “Purification and characterisation of intracellular alpha-galactosidases from Acinetobacter sp” (3 Biotech, 2015)

What was measured:
Format in all cases: biochemical, Acinetobacter sp.
Conditions in all cases: 20 mM Tris pH 7.0, 50 °C; unit mM ml^−1 [sic]
[1] = system: T1, alpha-galactosidase II (Ag-II); assay: reducing sugar (DNS, […] nm), Lineweaver-Burk
T1 construct: native intracellular enzyme purified from Acinetobacter sp. isolate G1 (soil, sugarcane industry, Sangareddy, India); 37 kDa, monomer

[2] = system: T2, alpha-galactosidase I (Ag-I); assay: reducing sugar (DNS, […] nm), Lineweaver-Burk
T2 construct: native intracellular enzyme purified from Acinetobacter sp. isolate G1 (soil, sugarcane industry, Sangareddy, India); 65 kDa, monomer

[3] = system: T1, alpha-galactosidase II (Ag-II); assay: p-nitrophenol release at […] nm, Lineweaver-Burk
[4] = system: T2, alpha-galactosidase I (Ag-I); assay: p-nitrophenol release at […] nm, Lineweaver-Burk

Compound | Michaelis constant (K m) mM ml^-1 [1] [mM ml^−1] | Michaelis constant (K m) mM ml^-1 [2] [mM ml^−1] | Michaelis constant (K m) mM ml^-1 [3] [mM ml^−1] | Michaelis constant (K m) mM ml^-1 [4] [mM ml^−1]
OC[C@H]1O[C@H](OC[C@H]2O[C@H](O[C@]3(CO)O[C@H](CO)[C@@H](O)[C@@H]3O)[C@H](O)[C@@H](O)[C@@H]2O)[C@H](O)[C@@H](O)[C@H]1O [Raffinose] | 0.74 | 3.26 |  | 
O=[N+]([O-])c1ccc(O[C@H]2O[C@H](CO)[C@H](O)[C@H](O)[C@H]2O)cc1 [ρNPGal, p-Nitrophenyl-α-D-galactopyranoside] |  |  | 0.68 | 0.33
